Experimental data reported in patent publication US7528252B2, “Derivatives of triazoly-imidazopyridine useful as ligands of the adenosine A2a receptor and their use as medicaments” (Sigma-Tau Industrie Farmaceutiche Riunite S.p.A., priority 2002, dated 2009).

Legend:
[1] = literature (Ongini et al.); cited from earlier work
[2] = El Yacoubi M; et al Eur. J. Pharm. 401 (2000) 63-77; cited from earlier work
CD1 male mice [3] = test: Effects on spontaneous motor activity in mice; format: in vivo; settings: mean ± s.e.
Method: For this study, type CD1 male mice (n=8) were used. The effects of the products under study and of the reference compounds were evaluated using an apparatus consisting of a Plexiglas cage (40 cm×40 cm) surrounded by a series of photocells which monitor the movements of the animals placed inside, connected a computerised system, through which, the signals are collected and later elaborated.
Tests were carried out, after endoperitoneal administration of the products. 15 minutes after treatment, the treated animals, alternating with the controls, were placed inside the cage so as to record their spontaneous movements over a total period of 45 minutes broken down into two observation intervals (15′-45′ and 45′-60′, with respect to the time after treatment).
To examine the possible effects of the compounds studied on motor activity, the following parameters were considered: horizontal activity, vertical activity: total distance.
Except for CGS 21680 (reference compound, described in EP 0 277 917, Ciba-Geigy) which was dissolved in 0.9% NaCl, the products studied were solubilised in DMSO and then diluted in Cremofor EL and 0.9% NaCl (final concentrations: DMSO 15%, Cremofor EL 15%, NaCl 0.9%.

CD1 male mice [4] = test: Capacity of the products to induce catalepsy in mice; format: in vivo; settings: 60 mg/kg, endoperitoneal, 30 minutes prior to the test
Method: 10 CD1 male mice were used per group. For this test, a steel bar, 10 cm long, was placed at a height of 4.5 cm above the support surface. Onto this, were placed the front legs of the animals. The presence of catalepsy was determined by measuring the time (in seconds) the animal remained in the posture placed. Later, this parameter was placed relatively, on a scale of rising values (0 to 5) through which, the degree of catalepsy determined in both control animals and in these subjected to treatment with the substances under test could be proportionately expressed.
The reference products and these in this study were administered endoperitoneally, in a volume of 10 ml/kg, 30 minutes prior to the test.
Except for CGS 21680 (reference compound) which was dissolved in 0.9% NaCl, the products in the study and the control antagonist ZM 241385 were solubilised in DMSO and then diluted in Cremofor EL and 0.9% NaCl (final concentrations: DMSO 15%, Cremofor EL 15%, NaCl 0.9%).

[5] = 15 mg/kg endoperitoneal, interval 15′-45′ from treatment
[6] = 15 mg/kg endoperitoneal, interval 45′-60′ from treatment
[7] = 30 mg/kg endoperitoneal, interval 15′-45′ from treatment
[8] = 30 mg/kg endoperitoneal, interval 45′-60′ from treatment
[9] = 60 mg/kg endoperitoneal, interval 15′-45′ from treatment
[10] = 60 mg/kg endoperitoneal, interval 45′-60′ from treatment

## CCn1c(=O)c2c(nc(/C=C/c3ccc(OC)c(OC)c3)n2C)n(CC)c1=O [KW-6002]
[1]
  photoisomerisation of the ethylenic bond (stability): subject to loss of activity through photoisomerisation of the ethylenic bond

## Nc1nc(NCCc2ccc(O)cc2)nc2nc(-c3ccco3)nn12 [ZM 241385, reference compound]
[2]
  bioavailability in vivo: very low bioavailability
CD1 male mice [3]; [5]
  Horizontal activity: 8706 ± 473
  Total distance: 2280 ± 242
  Vertical activity: 680 ± 64
CD1 male mice [3]; [6]
  Horizontal activity: 4148 ± 241
  Total distance: 1022 ± 130
  Vertical activity: 362 ± 78
CD1 male mice [3]; [7]
  Horizontal activity: 7035 ± 709
  Total distance: 1725 ± 186
  Vertical activity: 613 ± 102
CD1 male mice [3]; [8]
  Horizontal activity: 3505 ± 375
  Total distance: 783 ± 165
  Vertical activity: 282 ± 37
CD1 male mice [3]; [9]
  Horizontal activity: 7790 ± 980
  Total distance: 2250 ± 401
  Vertical activity: 570 ± 129
CD1 male mice [3]; [10]
  Horizontal activity: 4241 ± 407
  Total distance: 1131 ± 158
  Vertical activity: 264 ± 56
CD1 male mice [4]
  appearance of catalepsy in mice (FIG. 1): none of them brought about the appearance of catalepsy in mice, analogous to the reference antagonist
